From paper PMC12439480, “Dimeric CCK2R radiotheranostic tracers synergize with mTOR inhibition for enhanced tumor therapy” (Theranostics, 2025)
Read-outs that look alike come from different tables or passages of the source. Numbered stars: 1 amine (or outer) side, 2 acyl side, 3 side chain; on linkers, the order of the positions; unused ones are H or OH. Square brackets hold non-standard residues; d marks the D form. Side chains are listed from the residue outwards. Peptide text beside a SMILES is read from it. * marks the point of attachment. DOTA = O=C(O)CN1CCN(CC(=O)O)CCN(CC(=O)*)CCN(CC(=O)O)CC1; d(γGlu) = O=C(O)[C@@H](CCC(=O)[*:2])N[*:1]; 1Nal = N[C@@H](Cc1cccc2ccccc12)C(=O)O; NMeNle = CCCC[C@H](NC)C(=O)O; PEG4 = NCCOCCOCCOCCOCCC(=O)O

Experiment: Ex vivo biodistribution of 177Lu-labeled compound
Parameters: species or system BALB/c nude mice
Details: mouse, in vivo; for tissue to tissue ratio at 24 h / tissue to tissue ratio at 48 h / tissue to tissue ratio at 72 h / tissue to tissue ratio at 96 h / tissue to tissue ratio at 1 h / tissue to tissue ratio at 4 h: female, BALB/c nude, iv, total radioactivity
Experimental: To evaluate the biodistribution of [^177Lu]Lu-DOTA-CCK2R-dimer, AR42J tumor-bearing mice received intravenous (i.v.) injections of 3.7 MBq (≈ 120 pmol) of [^177Lu]Lu-DOTA-CCK2R-dimer (dissolved in 200 μL of saline; n = 3/group), and Mice were sacrificed at 1, 4, 24, 48, 72, and 96 h post-injection. The tissues of interest were excised, weighed, and analyzed for radioactivity using a γ-counter.
All animal studies were approved by the Ethics Committee of Fudan University Shanghai Cancer Center (No. FUSCC-IACUC- S2023- 0003). Five-week-old female BALB/c nude mice were purchased from Shanghai SLAC Laboratory Animal
Company. To establish cell-derived xenograft (CDX) models, 1 × 10⁶ AR42J cells (100 μL) were subcutaneously inoculated into the right shoulder of each mouse. […]
Radioactivity levels were measured using a gamma counter, with decay correction applied based on the injection time. The percentage of injected dose per gram of tissue (%ID/g) was calculated for each time point. […]

[1] = 3.7 MBq, Tumor-to-Bladder ratio (T/B)
[2] = 3.7 MBq, Tumor-to-Blood ratio (T/B)
[3] = 3.7 MBq, Tumor-to-Bone ratio (T/B)
[4] = 3.7 MBq, Tumor-to-Brain ratio (T/B)
[5] = 3.7 MBq, Tumor-to-Heart ratio (T/B)
[6] = 3.7 MBq, Tumor-to-Liver ratio (T/B)
[7] = 3.7 MBq, Tumor-to-Muscle ratio (T/M)
[8] = 3.7 MBq, Tumor-to-Stomach ratio (T/B)
[9] = Tumor-to-Large intestine ratio (T/B)
[10] = Tumor-to-Small intestine ratio (T/B)

`CCCC[C@@H](C(=O)N[C@@H](CC(=O)O)C(=O)N[C@@H](Cc1cccc2ccccc12)C(N)=O)N(C)C(=O)[C@H](Cc1c[nH]c2ccccc12)NC(=O)CCOCCOCCOCCOCCNC(=O)CC[C@@H](NC(=O)CC[C@H](NC(=O)CN1CCN(CC(=O)O)CCN(CC(=O)O)CCN(CC(=O)O)CC1)C(=O)N[C@H](CCC(=O)NCCOCCOCCOCCOCCC(=O)N[C@@H](Cc1c[nH]c2ccccc12)C(=O)N(C)[C@@H](CCCC)C(=O)N[C@@H](CC(=O)O)C(=O)N[C@@H](Cc1cccc2ccccc12)C(N)=O)C(=O)O)C(=O)O` [[177Lu]Lu-DOTA-CCK2R-dimer, metal not drawn] ({DOTA}-E([d(γGlu)-PEG4-Trp-NMeNle-Asp-1Nal-NH2])[d(γGlu)][PEG4]W[NMeNle]D[1Nal]-NH2) gave a tissue to tissue ratio at 24 h [1] of 35.4 ± 6.48, a tissue to tissue ratio at 48 h [1] of 194 ± 91 and a tissue to tissue ratio at 72 h [1] of 44.7 ± 13.1. The tissue to tissue ratio at 96 h [1] was 13.5 ± 4.12, the tissue to tissue ratio at 1 h [2] was 2.95 ± 1.5 and the tissue to tissue ratio at 4 h [2] was 13.3 ± 5.68. It also gave a tissue to tissue ratio at 24 h [2] of 141 ± 51.3, a tissue to tissue ratio at 48 h [2] of 186 ± 14.3 and a tissue to tissue ratio at 72 h [2] of 768 ± 140. It also gave a tissue to tissue ratio at 96 h [2] of 226 ± 40.9, a tissue to tissue ratio at 1 h [3] of 35.1 ± 13.6 and a tissue to tissue ratio at 4 h [3] of 53.2 ± 32.6. The tissue to tissue ratio at 24 h [3] was 165 ± 45, the tissue to tissue ratio at 48 h [3] was 1070 ± 247 and the tissue to tissue ratio at 72 h [3] was 117 ± 40.1. The tissue to tissue ratio at 96 h [3] was 46 ± 9.49, the tissue to tissue ratio at 1 h [4] was 141 ± 50 and the tissue to tissue ratio at 4 h [4] was 470 ± 81.1. It also gave a tissue to tissue ratio at 24 h [4] of 6080 ± 100, a tissue to tissue ratio at 48 h [4] of 1710 ± 151 and a tissue to tissue ratio at 72 h [4] of 746 ± 85.1. It also gave a tissue to tissue ratio at 96 h [4] of 189 ± 50.1, a tissue to tissue ratio at 1 h [5] of 15.3 ± 5.59 and a tissue to tissue ratio at 96 h [5] of 105 ± 5.19. It also gave a tissue to tissue ratio at 1 h [6] of 5.19 ± 2.8, a tissue to tissue ratio at 4 h [6] of 4.37 ± 0.9 and a tissue to tissue ratio at 24 h [6] of 10 ± 0.99. The tissue to tissue ratio at 48 h [6] was 7.78 ± 1.96, the tissue to tissue ratio at 1 h [7] was 53.3 ± 18.2 and the tissue to tissue ratio at 4 h [7] was 246 ± 180. For the same compound, the tissue to tissue ratio at 24 h [7] was 417 ± 210, the tissue to tissue ratio at 48 h [7] was 531 ± 153 and the tissue to tissue ratio at 72 h [7] was 348 ± 238. It also gave a tissue to tissue ratio at 96 h [7] of 90.8 ± 32.8, a tissue to tissue ratio at 1 h [8] of 4.83 ± 1.46 and a tissue to tissue ratio at 96 h [8] of 13.4 ± 6.42. For the same compound, the tissue to tissue ratio at 1 h (3.7 MBq, 1 h p.i., read-out: Tumor-to-Kidney ratio (T/B)) was 2.22 ± 1.01, the tissue to tissue ratio at 48 h (3.7 MBq, 48 h p.i., read-out: Tumor-to-Kidney ratio (T/B)) was 4.16 ± 3.43 and the tissue to tissue ratio at 1 h (Tumor-to-Bladder ratio (T/B)) was 24.8 ± 11. For the same compound, the tissue to tissue ratio at 4 h (Tumor-to-Bladder ratio (T/B)) was 40.4 ± 12.1, the tissue to tissue ratio at 4 h (Tumor-to-Heart ratio (T/B)) was 29.6 ± 12.8 and the tissue to tissue ratio at 24 h (Tumor-to-Heart ratio (T/B)) was 134 ± 59.9. For the same compound, the tissue to tissue ratio at 48 h (Tumor-to-Heart ratio (T/B)) was 406 ± 29.2, the tissue to tissue ratio at 72 h (Tumor-to-Heart ratio (T/B)) was 80.5 ± 26.4 and the tissue to tissue ratio at 1 h [9] was 17.1 ± 5.58. It also gave a tissue to tissue ratio at 4 h [9] of 24.4 ± 5.51, a tissue to tissue ratio at 24 h [9] of 90.7 ± 23.4 and a tissue to tissue ratio at 48 h [9] of 73.2 ± 14.5. The tissue to tissue ratio at 72 h [9] was 98.9 ± 74.4, the tissue to tissue ratio at 96 h [9] was 26.3 ± 11 and the tissue to tissue ratio at 72 h (Tumor-to-Liver ratio (T/B)) was 5.53 ± 1.05. For the same compound, the tissue to tissue ratio at 96 h (Tumor-to-Liver ratio (T/B)) was 2.7 ± 0.63, the tissue to tissue ratio at 1 h (Tumor-to-Lung ratio (T/B)) was 7.93 ± 3.29 and the tissue to tissue ratio at 4 h (Tumor-to-Lung ratio (T/B)) was 15.9 ± 6.64. The tissue to tissue ratio at 24 h (Tumor-to-Lung ratio (T/B)) was 331 ± 35, the tissue to tissue ratio at 48 h (Tumor-to-Lung ratio (T/B)) was 900 ± 88 and the tissue to tissue ratio at 72 h (Tumor-to-Lung ratio (T/B)) was 299 ± 66.5. The tissue to tissue ratio at 96 h (Tumor-to-Lung ratio (T/B)) was 61.2 ± 12.8, the tissue to tissue ratio at 1 h [10] was 14 ± 5.39 and the tissue to tissue ratio at 4 h [10] was 28.8 ± 10.3. For the same compound, the tissue to tissue ratio at 24 h [10] was 229 ± 10, the tissue to tissue ratio at 48 h [10] was 112 ± 61 and the tissue to tissue ratio at 72 h [10] was 187 ± 27.7. For the same compound, the tissue to tissue ratio at 96 h [10] was 39.6 ± 12.2, the tissue to tissue ratio at 1 h (Tumor-to-Spleen ratio (T/B)) was 8.21 ± 4.18 and the tissue to tissue ratio at 4 h (Tumor-to-Spleen ratio (T/B)) was 6.59 ± 0.75. For the same compound, the tissue to tissue ratio at 24 h (Tumor-to-Spleen ratio (T/B)) was 55 ± 21.1, the tissue to tissue ratio at 48 h (Tumor-to-Spleen ratio (T/B)) was 124 ± 50 and the tissue to tissue ratio at 72 h (Tumor-to-Spleen ratio (T/B)) was 51.8 ± 19.5. The tissue to tissue ratio at 96 h (Tumor-to-Spleen ratio (T/B)) was 9.63 ± 3.59, the tissue to tissue ratio at 4 h (Tumor-to-Stomach ratio (T/B)) was 5.05 ± 1.72 and the tissue to tissue ratio at 24 h (Tumor-to-Stomach ratio (T/B)) was 5.94 ± 1.92. It also gave a tissue to tissue ratio at 48 h (Tumor-to-Stomach ratio (T/B)) of 4.15 ± 0.31, a tissue to tissue ratio at 72 h (Tumor-to-Stomach ratio (T/B)) of 8.41 ± 1.18 and a tissue to tissue ratio at 4 h (4 h p.i., read-out: Tumor-to-Kidney ratio (T/B)) of 2.19 ± 0.23. The tissue to tissue ratio at 24 h (24 h p.i., read-out: Tumor-to-Kidney ratio (T/B)) was 1.84 ± 0.56, the tissue to tissue ratio at 72 h (72 h p.i., read-out: Tumor-to-Kidney ratio (T/B)) was 1.65 ± 0.05 and the tissue to tissue ratio at 96 h (96 h p.i., read-out: Tumor-to-Kidney ratio (T/B)) was 1.37 ± 0.84. It also gave a tissue uptake at 1 h (Bladder uptake) of 0.84 ± 0.31 %ID/g, a tissue uptake at 4 h (Bladder uptake) of 0.4 ± 0.13 %ID/g and a tissue uptake at 24 h (Bladder uptake) of 0.18 ± 0.04 %ID/g.
